Where two headings read alike, the source gives them in different places.
Columns and labels:
[1] = tested on: E. coli ATCC BAA202 (SHV-1); assay: MIC by agar dilution, E. coli ATCC BAA202; assay type: cell-based; conditions: Escherichia coli, ATCCBAA202, MB076 fixed at 4 µg/mL in the combination
Method: (§1) Cation adjusted (25.0 mg/L Ca^2+ and 12.5 mg/L Mg^2+) Mueller-Hinton broth (CAMHB; BBL Microbiology Systems, Cockeysville, MD) and agar (CAMHA; Becton, Dickinson and Company, Sparks, MD) were used for susceptibility testing and for all in vitro experiments. […] All antibiotic solutions were filter sterilized using a 0.22-μm-pore-size filter (Fisher Scientific, Pittsburgh, PA).

[2] = tested on: K. pneumoniae KPC-Kpn-1 (KPC-3, SHV-12, TEM-1); assay: MIC by agar dilution, KPC-Kpn-1; assay type: cell-based; conditions: Klebsiella pneumoniae, inhibitor (MB076 or S02030) fixed at 4 µg/mL in the combination
Method: as §1

[3] = tested on: K. pneumoniae Kpn 34700 (CTX-M-15, SHV, TEM); assay: MIC by agar dilution, Kpn 34700; assay type: cell-based; conditions: Klebsiella pneumoniae, MB076 fixed at 4 µg/mL in the combination
Method: as §1

[4] = tested on: K. pneumoniae Kpn original KPC-2; assay: MIC by agar dilution, Kpn original KPC-2; assay type: cell-based; conditions: Klebsiella pneumoniae, MB076 fixed at 4 µg/mL in the combination
Method: as §1

[5] = tested on: K. pneumoniae Kpn ST17 (KPC-2, TEM, SHV, CTX-M group 1); assay: MIC by agar dilution, Kpn ST17; assay type: cell-based; conditions: Klebsiella pneumoniae, MB076 fixed at 4 µg/mL in the combination
Method: as §1

[6] = tested on: K. pneumoniae Kpn ST258 C3 (KPC-3); assay: MIC by agar dilution, Kpn ST258 C3; assay type: cell-based; conditions: Klebsiella pneumoniae, MB076 fixed at 4 µg/mL in the combination
Method: as §1

[7] = tested on: K. pneumoniae Kpn ST258 B5 (KPC-2); assay: MIC by agar dilution, Kpn ST258 B5; assay type: cell-based; conditions: Klebsiella pneumoniae, MB076 fixed at 4 µg/mL in the combination
Method: as §1

[8] = tested on: K. pneumoniae Kpn266 (SHV-5); assay: MIC by agar dilution, Kpn266; assay type: cell-based; conditions: Klebsiella pneumoniae, MB076 fixed at 4 µg/mL in the combination
Method: as §1

[9] = tested on: K. pneumoniae Kpn 255 (TEM-1, SHV-2); assay: MIC by agar dilution, Kpn 255; assay type: cell-based; conditions: Klebsiella pneumoniae, MB076 fixed at 4 µg/mL in the combination
Method: as §1

[10] = tested on: K. pneumoniae isolate KPC-Kpn-1; assay: Neutropenic mouse lung infection model (intranasal challenge); assay type: in vivo; conditions: 24 h post treatment; treatment from 2 h post infection; cefepime 127.5 mg/kg/day SC, MB076 100 mg/kg/day IV (25 mg/kg every 6 h); neutropenic mice, n = 5
Method: (§2) A 0.2 mL aliquot of a single-use glycerol stock of the KPC-Kpn isolate (at −80°C) was used to seed 20 mL brain heart infusion (BHI) and then incubated at 35–37°C with shaking (120 rpm) for 8 h. Bacterial cells in the 20 mL aliquot were pelleted by centrifugation (3,500 × g) for 15 min and then resuspended in 10 mL cold phosphate buffer saline (PBS). The optical density, OD620 nm, was measured and used to guide dilution. The PBS suspensions were stored on ice for no more than 2 h prior to infecting the animals. The bacterial count in the challenge organism suspension was enumerated by dilution plating to CAMH agar plates followed by 20–24 h incubation.
Eleven- to 12-week-old BALB/c mice obtained from Charles River Laboratories (Raleigh, NC) were allowed to acclimatize for at least 1 week prior to initiating the studies. All animal procedures were approved by the Institutional Animal Care and Use Committee at the University of North Carolina at Chapel Hill (IACUC ID: 21-125.0), and all experiments were performed in accordance with institutional guidelines for animal experiments. […]
Five mice/group were sacrificed by overdose of inhaled 5% isoflurane at 26 h post inoculation. […] Lung bacterial counts were analyzed using a one-way ANOVA followed by post-hoc Tukey multiple comparison test (GraphPad Prism 10.1, GraphPad Software Inc., San Diego, USA). […]

K. pneumoniae KPC-Kpn-1 [11] = assay: Survival of mice infected intravenously via the tail vein; assay type: in vivo; conditions: male C57BL/6, 7 per group, 2.1 × 10^8 CFU/mouse IV; 100 mg/kg/dose at infection, 18 and 24 h; combination at 1:4 molar ratio
Method: as §2
Seven male C57BL/6 mice per treatment group were infected intravenously via the tail-vein by injecting a prepared inoculum of KPC-Kpn-1, input CFU = 2.1 × 10^8 CFU/mouse, contained in a volume of 0.25 mL per animal. […] Doses were repeated the following morning and afternoon (18 and 24 h after infection). Survival was evaluated 24 h post-treatment. Kaplan-Meier survival curves were generated using log-rank test (GraphPad Prism 10.1, GraphPad Software Inc., San Diego, USA). A P value of <0.05 was considered statistically significant.

[12] = healthy adults, multidose cefepime and zidebactam; cited from earlier work
K. pneumoniae KPC-Kpn-1 [13] = assay: Static time-kill assay in CAMHB; assay type: cell-based; conditions: in combination with cefepime
Method: as §1

[14] = Plasma pharmacokinetics of MB076 after single IV dose in thigh-infected mice; assay type: in vivo, mouse; conditions: for half-life / AUC(0-t) / AUC(0-inf) / C0 / clearance / Vd: plasma; for half-life: iv; for Vd: read-out: Vss
Method: A single dose PK study was conducted in mice infected with K. pneumoniae AR-BANK#0098 (producing KPC-2, OXA-9, and TEM-1) employing a thigh infection model. Escalating doses of MB076 (12.5, 25, 50, and 100 mg/kg) were intravenously administered via the tail vein. Following this terminal blood sampling via cardiac puncture was performed at eight different time points 5, 15, 30, 60, 90, 120, 180, and 240 min for each dose level. Plasma was separated by centrifugation at 4,000g for 10 min at 4°C and stored at −80°C until MB076 quantification was performed by LC/MS-MS bioanalysis.
WinNonlin software (Phoenix Build 8.3.1.5014) was employed to perform noncompartmental analysis (NCA) to calculate the PK parameters like elimination half-life (t1/2), area under the concentration–time curve over the duration of study (AUC0–last), and infinity (AUC0–inf), and the peak drug concentration (C0), volume of distribution (V) and clearance (CL). The AUCs for the different MB076 dose levels were calculated and compared to assess for any dose related non-linearity with increasing dose.
Terminal blood collection from cardiac puncture was conducted under CO2 euthanasia. Blood, 0.3–0.4 mL, was drawn into tubes coated with K2EDTA, mixed gently and kept on ice, and centrifuged at 12,000 × g for 5 min at 4°C within 1 h of collection. The plasma was harvested and stored at −80°C until further processing.
A 20 µL aliquot of each plasma sample was transferred to a 96 well plate. A 500 µL aliquot of 0.01 ng/µL internal standard (IS), Oxybutynin, in ACN/FA = 95/5, was added to each tube except for the double blank and carryover controls. A 500 µL aliquot of ACN/FA = 95/5, without oxybutynin, was added to the double blank and carryover assay wells. The equilibrated mixture was vortexed for 1 min and then centrifuged at 4,000 rpm for 10 min at 20°C to precipitate protein. After centrifugation, 500 µL of the supernatant was transferred to a new well of the 96 well plate for LC-MS/MS analysis. Plasma samples from treatment groups and the calibration curve samples were processed on the same test occasion using the same procedure. The calibration curve samples were generated by spiking aliquots of drug-free plasma with an MB076 dilution. The quality control (QC) samples, QH (high), QM (medium), and QL (low) were each assayed in duplicate.
LC-MS/MS was conducted with a SCIEX Triple Quad 5500 + mass spectrometer. Method development was conducted to determine appropriate conditions for LC-MS/MS analysis of MB076. A titration of a stock solution was performed to correlate peak areas and the corresponding concentration. The reportable linear range of the assay was determined along with the lower and upper limits of quantitation (LLOQ and […]).
To develop the bioanalytical method, MB076 was prepared in ACN/H2O = 50/50 at 1 ng/µL. Full scan MS analyses were conducted, and total ion current chromatograms and corresponding mass spectra were reviewed for MB076 in both positive and negative ionization modes. The precursor ions for MS/MS were selected from either the positive or the negative mass spectrum, as a function of the respective ion abundance. In addition, product ion MS/MS analysis was performed to determine the appropriately selected fragmentation reaction for use in quantitative analysis. The final reaction monitoring parameters were chosen to maximize the ability to quantify the test compound when present within a complex mixture of components. Following the identification of the specific multiple reaction monitoring (MRM) transition to be used for each test compound, the detection parameters were optimized. MB076 was observed as one charged ion [M + H]+ and the MRM chosen was m/z = 374.0 to m/z = 243.2 for MB076 in electrospray positive ion mode.
The chromatographic conditions used for LC-MS analysis were identified by injection and separation of the analyte on a suitable LC column followed by adjustment of the gradient conditions as necessary. […]

[15] = design: method as in PMID 37358467; conditions: cited from earlier work
[16] = mouse, 12.5 mg/kg single IV, thigh-infected mice
[17] = mouse, 25 mg/kg single IV, thigh-infected mice
[18] = mouse, 50 mg/kg single IV, thigh-infected mice
[19] = mouse, 100 mg/kg single IV, thigh-infected mice

CO/N=C(\C(=O)N[C@@H]1C(=O)N2C(C(=O)[O-])=C(C[N+]3(C)CCCC3)CS[C@H]12)c1csc(N)n1 [FEP, cefepime]
MIC [1]: 1 µg/mL
MIC [2]: 32 µg/mL
MIC [3]: 32 µg/mL
MIC [4]: 64 µg/mL
MIC [5]: 8 µg/mL
MIC [6]: 32 µg/mL
MIC [7]: 32 µg/mL
MIC [8]: 2 µg/mL
MIC [9]: 4 µg/mL
log10 CFU reduction in lung compared to the no treatment control group [10]: 1.07 log10 CFU
survival outcome of all mice in the group (K. pneumoniae KPC-Kpn-1 [11]): died
median AUCELF/AUCplasma [12]: 38%

Nc1nnc(SCC(=O)N[C@@H](Cn2cc(C(=O)O)nn2)B(O)O)s1 [MB076]
inhibitor concentration achieving sustained bacterial killing (K. pneumoniae KPC-Kpn-1 [13]): 4 µg/mL
reduction in clearance ([14]; 100 mg/kg compared to 12.5 mg/kg): 1.7 fold
increase of dose-normalized AUC ([14]; from 12.5 to 100 mg/kg dose): twofold
extraction ratio ([14]; hepatic blood flow in mouse 5.4 L/h/kg): 0.33
clearance classification ([14]; mouse, IV): low clearance compound
half-life ([14]; mouse, 25 mg/kg, 25 mg/kg single IV, thigh-infected mice): 36.6 min
half-life ([14]; mouse, 50 mg/kg, 50 mg/kg single IV, thigh-infected mice): 25.8 min
half-life ([14]; mouse, 100 mg/kg, 100 mg/kg single IV, thigh-infected mice): 25.8 min
AUC(0-t) ([14]; mouse, single IV 12.5 to 100 mg/kg, infected mice, read-out: AUClast, range over the dose levels): 7100 to 103000 ng·h/mL
dose linearity of plasma PK ([14]; mouse, single IV): linear PK in plasma up to 50 mg/kg dose
AUC(0-inf) [14, 16]: 7200 ng·h/mL
C0 [14, 16]: 35.6 µg/mL
clearance [14, 16]: 29.1 mL/min/kg
AUC(0-t) ([14]; mouse, 12.5 mg/kg single IV, thigh-infected mice, read-out: AUClast): 7100 ng·h/mL
Vd [14, 16]: 0.65 L/kg
AUC(0-inf) [14, 17]: 17800 ng·h/mL
C0 [14, 17]: 84 µg/mL
clearance [14, 17]: 23.4 mL/min/kg
AUC(0-t) ([14]; mouse, 25 mg/kg single IV, thigh-infected mice, read-out: AUClast): 17600 ng·h/mL
Vd [14, 17]: 0.8 L/kg
AUC(0-inf) [14, 18]: 31900 ng·h/mL
C0 [14, 18]: 207 µg/mL
clearance [14, 18]: 21.3 mL/min/kg
AUC(0-t) ([14]; mouse, 50 mg/kg single IV, thigh-infected mice, read-out: AUClast): 39000 ng·h/mL
Vd [14, 18]: 0.35 L/kg
AUC(0-inf) [14, 19]: 104000 ng·h/mL
C0 [14, 19]: 638 µg/mL
clearance [14, 19]: 16.1 mL/min/kg
AUC(0-t) ([14]; mouse, 100 mg/kg single IV, thigh-infected mice, read-out: AUClast): 103000 ng·h/mL
Vd [14, 19]: 0.21 L/kg
t1/2 (plasma stability) [15]: 1740 min

O=C(Cc1cccs1)N[C@@H](Cn1cc(C(=O)O)nn1)B(O)O [S02030]
inhibitor concentration achieving sustained bacterial killing (K. pneumoniae KPC-Kpn-1 [13]): 8 µg/mL
t1/2 (plasma stability) [15]: 540 min
